System: Energy system protein genes
Assay: DNA chip mRNA expression in yeast, energy system protein genes (Table 4)
Assay type: cell-based, Saccharomyces cerevisiae S288C
How it was run: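 First, S288C yeast grown in YPD at 25° C. are dosed in log phase with one toxicant (growth-inhibiting, not lethal) for 2 h. Next, total RNA is extracted and poly(A) mRNA isolated and reverse-transcribed with Cy3/Cy5-dUTP. Finally, whole-genome chip fluorescence is read relative to unexposed cells.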

## C[S+](C)[O-] [(15), dimethylsulfoxide]
Yeast gene YAL038W
  The level of expressed mRNA in the presence of chemical substance/The level of expressed mRNA in the absence of chemical substance: 3.1
Yeast gene YAL054C
  The level of expressed mRNA in the presence of chemical substance/The level of expressed mRNA in the absence of chemical substance: 0.9
Yeast gene YAL060W
  The level of expressed mRNA in the presence of chemical substance/The level of expressed mRNA in the absence of chemical substance: 0.9
Yeast gene YBL058W, cells incubated two hours with the chemical substance
  The level of expressed mRNA in the presence of chemical substance/The level of expressed mRNA in the absence of chemical substance: 1.8
Yeast gene YBR126C
  The level of expressed mRNA in the presence of chemical substance/The level of expressed mRNA in the absence of chemical substance: 1.0
Yeast gene YBR145W
  The level of expressed mRNA in the presence of chemical substance/The level of expressed mRNA in the absence of chemical substance: 1.2
Yeast gene YBR196C
  The level of expressed mRNA in the presence of chemical substance/The level of expressed mRNA in the absence of chemical substance: 1.9
Yeast gene YBR299W
  The level of expressed mRNA in the presence of chemical substance/The level of expressed mRNA in the absence of chemical substance: 0.6
Yeast gene YCL040W
  The level of expressed mRNA in the presence of chemical substance/The level of expressed mRNA in the absence of chemical substance: 3.4
Yeast gene YCR005C
  The level of expressed mRNA in the presence of chemical substance/The level of expressed mRNA in the absence of chemical substance: 0.7
Yeast gene YCR012W
  The level of expressed mRNA in the presence of chemical substance/The level of expressed mRNA in the absence of chemical substance: 1.4
Yeast gene YCR107W
  The level of expressed mRNA in the presence of chemical substance/The level of expressed mRNA in the absence of chemical substance: 4.8
Yeast gene YDL067C, cells incubated two hours with the chemical substance
  The level of expressed mRNA in the presence of chemical substance/The level of expressed mRNA in the absence of chemical substance: 0.7
Yeast gene YDL078C, cells incubated two hours with the chemical substance
  The level of expressed mRNA in the presence of chemical substance/The level of expressed mRNA in the absence of chemical substance: 0.5
Yeast gene YDL085W, cells incubated two hours with the chemical substance
  The level of expressed mRNA in the presence of chemical substance/The level of expressed mRNA in the absence of chemical substance: 0.7
Yeast gene YDL174C
  The level of expressed mRNA in the presence of chemical substance/The level of expressed mRNA in the absence of chemical substance: 0.6
Yeast gene YDL181W, cells incubated two hours with the chemical substance
  The level of expressed mRNA in the presence of chemical substance/The level of expressed mRNA in the absence of chemical substance: 0.4
Yeast gene YDL243C
  The level of expressed mRNA in the presence of chemical substance/The level of expressed mRNA in the absence of chemical substance: 4.2
Yeast gene YDR178W, cells incubated two hours with the chemical substance
  The level of expressed mRNA in the presence of chemical substance/The level of expressed mRNA in the absence of chemical substance: 0.7
Yeast gene YDR231C
  The level of expressed mRNA in the presence of chemical substance/The level of expressed mRNA in the absence of chemical substance: 1.0
Yeast gene YDR298C, cells incubated two hours with the chemical substance
  The level of expressed mRNA in the presence of chemical substance/The level of expressed mRNA in the absence of chemical substance: 0.8
Yeast gene YDR380W
  The level of expressed mRNA in the presence of chemical substance/The level of expressed mRNA in the absence of chemical substance: 2.4
Yeast gene YDR529C, cells incubated two hours with the chemical substance
  The level of expressed mRNA in the presence of chemical substance/The level of expressed mRNA in the absence of chemical substance: 0.5
Yeast gene YEL020C
  The level of expressed mRNA in the presence of chemical substance/The level of expressed mRNA in the absence of chemical substance: 1.4
Yeast gene YEL039C, cells incubated two hours with the chemical substance
  The level of expressed mRNA in the presence of chemical substance/The level of expressed mRNA in the absence of chemical substance: 0.4
Yeast gene YEL071W, cells incubated two hours with the chemical substance
  The level of expressed mRNA in the presence of chemical substance/The level of expressed mRNA in the absence of chemical substance: 1.6
Yeast gene YER061C, cells incubated two hours with the chemical substance
  The level of expressed mRNA in the presence of chemical substance/The level of expressed mRNA in the absence of chemical substance: 0.8
Yeast gene YER178W
  The level of expressed mRNA in the presence of chemical substance/The level of expressed mRNA in the absence of chemical substance: 1.8
Yeast gene YFL057C
  The level of expressed mRNA in the presence of chemical substance/The level of expressed mRNA in the absence of chemical substance: 3.1
Yeast gene YFR053C
  The level of expressed mRNA in the presence of chemical substance/The level of expressed mRNA in the absence of chemical substance: 0.6
Yeast gene YGL062W
  The level of expressed mRNA in the presence of chemical substance/The level of expressed mRNA in the absence of chemical substance: 2.7
Yeast gene YGL191W, cells incubated two hours with the chemical substance
  The level of expressed mRNA in the presence of chemical substance/The level of expressed mRNA in the absence of chemical substance: 0.7
Yeast gene YGL253W
  The level of expressed mRNA in the presence of chemical substance/The level of expressed mRNA in the absence of chemical substance: 0.8
Yeast gene YGR008C
  The level of expressed mRNA in the presence of chemical substance/The level of expressed mRNA in the absence of chemical substance: 1.5
Yeast gene YGR062C, cells incubated two hours with the chemical substance, 25° C., YPD medium
  The level of expressed mRNA in the presence of chemical substance/The level of expressed mRNA in the absence of chemical substance: 0.5
Yeast gene YGR087C, cells incubated two hours with the chemical substance
  The level of expressed mRNA in the presence of chemical substance/The level of expressed mRNA in the absence of chemical substance: 3.5
Yeast gene YGR174C, cells incubated two hours with the chemical substance
  The level of expressed mRNA in the presence of chemical substance/The level of expressed mRNA in the absence of chemical substance: 0.7
Yeast gene YGR192C
  The level of expressed mRNA in the presence of chemical substance/The level of expressed mRNA in the absence of chemical substance: 1.9
Yeast gene YGR207C
  The level of expressed mRNA in the presence of chemical substance/The level of expressed mRNA in the absence of chemical substance: 0.6
Yeast gene YGR244C
  The level of expressed mRNA in the presence of chemical substance/The level of expressed mRNA in the absence of chemical substance: 2.0
Yeast gene YGR254W
  The level of expressed mRNA in the presence of chemical substance/The level of expressed mRNA in the absence of chemical substance: 2.4
Yeast gene YGR256W
  The level of expressed mRNA in the presence of chemical substance/The level of expressed mRNA in the absence of chemical substance: 2.7
Yeast gene YHL008C
  The level of expressed mRNA in the presence of chemical substance/The level of expressed mRNA in the absence of chemical substance: 1.8
Yeast gene YHR174W
  The level of expressed mRNA in the presence of chemical substance/The level of expressed mRNA in the absence of chemical substance: 2.0
Yeast gene YHR179W
  The level of expressed mRNA in the presence of chemical substance/The level of expressed mRNA in the absence of chemical substance: 2.7
Yeast gene YIL045W
  The level of expressed mRNA in the presence of chemical substance/The level of expressed mRNA in the absence of chemical substance: 0.6
Yeast gene YIL111W
  The level of expressed mRNA in the presence of chemical substance/The level of expressed mRNA in the absence of chemical substance: 1.1
Yeast gene YIL160C
  The level of expressed mRNA in the presence of chemical substance/The level of expressed mRNA in the absence of chemical substance: 5.6
Yeast gene YIL172C
  The level of expressed mRNA in the presence of chemical substance/The level of expressed mRNA in the absence of chemical substance: 1.4
Yeast gene YIR031C, cells incubated two hours with the chemical substance
  The level of expressed mRNA in the presence of chemical substance/The level of expressed mRNA in the absence of chemical substance: 0.8
